Experimental data reported in patent US9359308B2, “Pyrazine kinase inhibitors” (Portola Pharmaceuticals, Inc., priority 2011, dated 2016).

target: T1, full length active recombinant SYK enzyme (Homo sapiens, UniProt P43405); test: Inhibition of Syk tyrosine phosphorylation activity (LANCE TR-FRET kinase assay); assay type: biochemical; settings: activity in the Syk assays, class symbols
T1 construct: full length active recombinant SYK enzyme (Millipore, Calif.); purchased Millipore
Method in brief: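 1 nM full-length active recombinant SYK phosphorylated 550 nM biotin-DEEDYESP-OH with 100 μM ATP in 50 mM Tris pH 7.5, 5 mM MgCl2, 1 mM DTT and 3% DMSO for 1 h at room temperature. After EDTA quench, Eu-anti-phosphotyrosine/SA-APC TR-FRET was read after 1 h. IC50s came from non-linear regression.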

IC50 [nM] | SMILES
1 to 10 | CC(C)[C@@H](Nc1cnc(C(N)=O)c(Nc2ccc3ccncc3c2)n1)C(N)=O [Example 195, (R)-5-(1-amino-3-methyl-1-oxobutan-2-ylamino)-3-(isoquinolin-7-ylamino)pyrazine-2-carboxamide]
10 to 100 | CC(C)C[C@@H](Nc1cnc(C(N)=O)c(Nc2cncc(C(F)(F)F)c2)n1)C(N)=O [Example 196, (R)-5-(1-amino-4-methyl-1-oxopentan-2-ylamino)-3-(5-(trifluoromethyl)pyridin-3-ylamino)pyrazine-2-carboxamide]
1 to 10 | NC(=O)c1ncc(N[C@@H]2CCCC[C@@H]2N)nc1Nc1cncc(C(F)(F)F)c1 [Example 197, 5-((1R,2S)-2-aminocyclohexylamino)-3-(5-(trifluoromethyl)pyridin-3-ylamino)pyrazine-2-carboxamide]
1 to 10 | NC(=O)c1ncc(N[C@@H]2CCCC[C@@H]2N)nc1Nc1cnc2ccc(F)cc2c1 [Example 198, 5-((1R,2S)-2-aminocyclohexylamino)-3-(6-fluoroquinolin-3-ylamino)pyrazine-2-carboxamide]
1 to 10 | NC(=O)c1ncc(N[C@@H]2CCCC[C@@H]2N)nc1Nc1cccc(C(F)(F)F)c1 [Example 199, 5-((1R,2S)-2-aminocyclohexylamino)-3-(3-(trifluoromethyl)phenylamino)pyrazine-2-carboxamide]
1 to 10 | CC(C)[C@@H](Nc1cnc(C(N)=O)c(Nc2cnc3ccc(F)cc3c2)n1)C(N)=O [Example 200, (R)-5-(1-amino-3-methyl-1-oxobutan-2-ylamino)-3-(6-fluoroquinolin-3-ylamino)pyrazine-2-carboxamide]
1 to 10 | NC(=O)c1ncc(N[C@@H]2CCCC[C@@H]2N)nc1Nc1cnc2cc(F)ccc2c1 [Example 201, 5-((1R,2S)-2-aminocyclohexylamino)-3-(7-fluoroquinolin-3-ylamino)pyrazine-2-carboxamide]
1 to 10 | NC(=O)c1ncc(N[C@@H]2CCCC[C@@H]2N)nc1Nc1cnc2c(F)cccc2c1 [Example 202, 5-((1R,2S)-2-aminocyclohexylamino)-3-(8-fluoroquinolin-3-ylamino)pyrazine-2-carboxamide]
1 to 10 | CC(C)[C@@H](Nc1cnc(C(N)=O)c(Nc2cnc3cc(F)ccc3c2)n1)C(N)=O [Example 203, (R)-5-(1-amino-3-methyl-1-oxobutan-2-ylamino)-3-(7-fluoroquinolin-3-ylamino)pyrazine-2-carboxamide]
1 to 10 | CC(C)[C@@H](Nc1cnc(C(N)=O)c(Nc2cnc3c(F)cccc3c2)n1)C(N)=O [Example 204, (R)-5-(1-amino-3-methyl-1-oxobutan-2-ylamino)-3-(8-fluoroquinolin-3-ylamino)pyrazine-2-carboxamide]
< 1 | NC(=O)c1ncc(N[C@@H]2CCCC[C@@H]2N)nc1Nc1cc(F)c2ncccc2c1 [Example 205, 5-((1R,2S)-2-aminocyclohexylamino)-3-(8-fluoroquinolin-6-ylamino)pyrazine-2-carboxamide]
1 to 10 | CC(C)[C@@H](Nc1cnc(C(N)=O)c(Nc2cc(F)c3ncccc3c2)n1)C(N)=O [Example 206, (R)-5-(1-amino-3-methyl-1-oxobutan-2-ylamino)-3-(8-fluoroquinolin-6-ylamino)pyrazine-2-carboxamide]
1 to 10 | CN1C(=O)COc2ccc(Nc3nc(N[C@@H]4CCCC[C@@H]4N)cnc3C(N)=O)cc21 [Example 207, 5-((1R,2S)-2-aminocyclohexylamino)-3-(4-methyl-3-oxo-3,4-dihydro-2H-benzo[b][1,4]oxazin-6-ylamino)pyrazine-2-carboxamide]
1 to 10 | CC[C@@H](Nc1cnc(C(N)=O)c(Nc2cc(F)c3ncccc3c2)n1)C(N)=O [Example 208, (R)-5-(1-amino-1-oxobutan-2-ylamino)-3-(8-fluoroquinolin-6-ylamino)pyrazine-2-carboxamide]
10 to 100 | CC(C)[C@@H](Nc1cnc(C(N)=O)c(Nc2ccc(-c3ccccn3)cc2)n1)C(N)=O [Example 209, (R)-5-(1-amino-3-methyl-1-oxobutan-2-ylamino)-3-(4-(pyridin-2-yl)phenylamino)pyrazine-2-carboxamide]
1 to 10 | NC(=O)c1ncc(N[C@@H]2CCCC(F)(F)[C@@H]2N)nc1Nc1cc(F)c2ncccc2c1 [Example 210, 5-((1R,2R)-2-amino-3,3-difluorocyclohexylamino)-3-(8-fluoroquinolin-6-ylamino)pyrazine-2-carboxamide]
100 to 1000 | CC[C@@H](Nc1cnc(C(N)=O)c(Nc2cnn(C)c2)n1)C(N)=O [Example 211, (R)-5-(1-amino-1-oxobutan-2-ylamino)-3-(1-methyl-1H-pyrazol-4-ylamino)pyrazine-2-carboxamide]
1 to 10 | Cc1cc(Nc2nc(N[C@@H](C(N)=O)C(C)C)cnc2C(N)=O)sn1 [Example 212, (R)-5-(1-amino-3-methyl-1-oxobutan-2-ylamino)-3-(3-methylisothiazol-5-ylamino)pyrazine-2-carboxamide]
10 to 100 | NC(=O)c1ncc(N[C@@H]2CCCC[C@@H]2N)nc1Nc1ccnnc1 [Example 213, 5-((1R,2S)-2-aminocyclohexylamino)-3-(pyridazin-4-ylamino)pyrazine-2-carboxamide]
10 to 100 | Cc1cc(Nc2nc(N[C@@H](C(N)=O)C(C)(C)C)cnc2C(N)=O)sn1 [Example 214, (R)-5-(1-amino-3,3-dimethyl-1-oxobutan-2-ylamino)-3-(3-methylisothiazol-5-ylamino)pyrazine-2-carboxamide]
10 to 100 | Cc1cc(Nc2nc(N[C@H](C)C(N)=O)cnc2C(N)=O)sn1 [Example 215, (R)-5-(1-amino-1-oxopropan-2-ylamino)-3-(3-methylisothiazol-5-ylamino)pyrazine-2-carboxamide]
1 to 10 | CC(C)C[C@@H](Nc1cnc(C(N)=O)c(Nc2cncc(Cl)c2)n1)C(N)=O [Example 216, (R)-5-(1-amino-4-methyl-1-oxopentan-2-ylamino)-3-(5-chloropyridin-3-ylamino)pyrazine-2-carboxamide]
1 to 10 | NC(=O)c1ncc(N[C@@H]2CCCC[C@@H]2N)nc1Nc1cncc(Cl)c1 [Example 217, 5-((1R,2S)-2-aminocyclohexylamino)-3-(5-chloropyridin-3-ylamino)pyrazine-2-carboxamide]
100 to 1000 | CC[C@@H](Nc1cnc(C(N)=O)c(Nc2cnn(CC3CC3)c2)n1)C(N)=O [Example 218, (R)-5-(1-amino-1-oxobutan-2-ylamino)-3-(1-(cyclopropylmethyl)-1H-pyrazol-4-ylamino)pyrazine-2-carboxamide]
10 to 100 | NC(=O)c1ncc(N[C@@H]2CCCC[C@@H]2N)nc1Nc1cnn(CC2CC2)c1 [Example 219, 5-((1R,2S)-2-aminocyclohexylamino)-3-(1-(cyclopropylmethyl)-1H-pyrazol-4-ylamino)pyrazine-2-carboxamide]
1 to 10 | Cc1cc(Nc2nc(NC3(C(N)=O)CC3)cnc2C(N)=O)sn1 [Example 220, 5-(1-carbamoylcyclopropylamino)-3-(3-methylisothiazol-5-ylamino)pyrazine-2-carboxamide]
1 to 10 | CCc1cc(Nc2nc(N[C@H](CC)C(N)=O)cnc2C(N)=O)sn1 [Example 221, (R)-5-(1-amino-1-oxobutan-2-ylamino)-3-(3-ethylisothiazol-5-ylamino)pyrazine-2-carboxamide]
